Source: the supplement of paper PMC10307832

Assays:
Assay in all cases: relative viability (nuclei count vs DMSO), 5 days (fraction); higher = more cells survive
Dinaciclib + Phenformin = compound: CCc1cnn2c(NCc3ccc[n+]([O-])c3)cc(N3CCCC[C@H]3CCO)nc12 [Dinaciclib] + N=C(N)NC(=N)NCCc1ccccc1 [Phenformin] (partner 250 µM)
Summary of the method: (§1)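 Lung cancer cell lines, seeded in 1536-well plates, were treated the following day by pin tool with a single drug or with five library-drug doses (not always all listed) in √10 steps on top of a fixed anchor-drug dose. Cells were fixed and nuclei stained in one step after 5 days, and nuclei were counted. Relative viability is the nuclei count for treated wells divided by that for vehicle wells, reported as medians of duplicate plates.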

Dinaciclib + Crizotinib = compound: CCc1cnn2c(NCc3ccc[n+]([O-])c3)cc(N3CCCC[C@H]3CCO)nc12 [Dinaciclib] + C[C@@H](Oc1cc(-c2cnn(C3CCNCC3)c2)cnc1N)c1c(Cl)ccc(F)c1Cl [Crizotinib] (partner 1 µM)
Summary of the method: as §1

Dinaciclib + Linsitinib = compound: CCc1cnn2c(NCc3ccc[n+]([O-])c3)cc(N3CCCC[C@H]3CCO)nc12 [Dinaciclib] + C[C@]1(O)C[C@@H](c2nc(-c3ccc4ccc(-c5ccccc5)nc4c3)c3c(N)nccn32)C1 [Linsitinib] (partner 1 µM)
Summary of the method: as §1

Dinaciclib = compound: CCc1cnn2c(NCc3ccc[n+]([O-])c3)cc(N3CCCC[C@H]3CCO)nc12 [Dinaciclib]
Summary of the method: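 Only plates meeting two conditions passed: control CV below 25% and at least one doubling. Lung cancer cell lines, kept overnight at 37 °C in 1536-well plates, were pinned with five library-drug doses (not always all listed) √10 apart on vehicle-anchored plates and grown 5 days without medium change. A one-step fix, permeabilisation and Hoechst stain preceded 4× imaging and MetaXpress nuclear counting. Viability equals treated-well nuclei divided by vehicle-well nuclei, as the median over plates.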

Dinaciclib + Foretinib = compound: CCc1cnn2c(NCc3ccc[n+]([O-])c3)cc(N3CCCC[C@H]3CCO)nc12 [Dinaciclib] + COc1cc2c(Oc3ccc(NC(=O)C4(C(=O)Nc5ccc(F)cc5)CC4)cc3F)ccnc2cc1OCCCN1CCOCC1 [Foretinib] (partner 0.25 µM)
Summary of the method: as §1

Cell Line	relative viability (Dinaciclib + Phenformin; first compound 0.009487 µM)	relative viability (Dinaciclib + Phenformin; first compound 0.03 µM)	relative viability (Dinaciclib + Phenformin; first compound 0.09487 µM)	relative viability (Dinaciclib + Phenformin; first compound 0.3 µM)	relative viability (Dinaciclib + Crizotinib; first compound 0.009487 µM)	relative viability (Dinaciclib + Crizotinib; first compound 0.03 µM)	relative viability (Dinaciclib + Crizotinib; first compound 0.09487 µM)	relative viability (Dinaciclib + Crizotinib; first compound 0.3 µM)	relative viability (Dinaciclib + Linsitinib; first compound 0.009487 µM)	relative viability (Dinaciclib + Linsitinib; first compound 0.03 µM)	relative viability (Dinaciclib + Linsitinib; first compound 0.09487 µM)	relative viability (Dinaciclib + Linsitinib; first compound 0.3 µM)	relative viability (Dinaciclib; 0.009487 µM)	relative viability (Dinaciclib; 0.03 µM)	relative viability (Dinaciclib; 0.09487 µM)	relative viability (Dinaciclib; 0.3 µM)	relative viability (Dinaciclib + Foretinib; first compound 0.009487 µM)	relative viability (Dinaciclib + Foretinib; first compound 0.03 µM)	relative viability (Dinaciclib + Foretinib; first compound 0.09487 µM)	relative viability (Dinaciclib + Foretinib; first compound 0.3 µM)
HCC-44	0.138	0.105	0.0633	0.0778	0.741	0.133	0.118	0.112	0.461	0.119	0.122	0.103	0.973	0.443	0.176	0.147				
LCLC-103H	0.292	0.327	0.11	0.0875	1.06	1.03	0.329	0.123	1.13	0.934	0.18	0.172	1.03	0.855	0.204	0.146	0.834	0.623	0.0915	0.094
ChaGo-K-1	0.414	0.17	0.125	0.137	0.699	0.229	0.224	0.214					0.95	0.246	0.203	0.146	0.918	0.245	0.12	0.14
NCI-H1703					0.61	0.229	0.0855	0.106	0.767	0.25	0.0664	0.0983	1.16	0.531	0.104	0.118	0.39	0.319	0.144	0.12
NCI-H1793	0.374	0.235	0.115	0.119					0.818	0.187	0.119	0.128	0.78	0.227	0.152	0.138	0.344	0.171	0.141	0.143
NCI-H1650	0.262	0.139	0.151	0.126	0.97	0.121	0.0986	0.113					0.943	0.174	0.134	0.148	1.1	0.336	0.167	0.14
NCI-H1395	0.453	0.306	0.301	0.248					1.56	0.249	0.297	0.277	0.637	0.308	0.263	0.272	1.18	0.335	0.269	0.252
NCI-H1792	0.237	0.184	0.0541	0.075	0.994	0.747	0.184	0.0753	0.559	0.317	0.069	0.0552	1.01	0.358	0.117	0.0792				
IA-LM					0.725	0.0572	0.0441	0.0336	0.664	0.27	0.028	0.0252	0.804	0.286	0.0334	0.0226	1.01	0.0352	0.0148	0.0125
